Measurements from patent US20210183467A1, “SYSTEM AND METHOD FOR USING MICROBIOME TO DE-RISK DRUG DEVELOPMENT” (YALE UNIVERSITY, priority 2018, published 2021).

Experiments:
[1] = Physiologically based multi-compartment pharmacokinetic model; set-up: species or system mouse; conditions: GN^WT mice, oral BRV
From the text: These quantitative measurements of drug and metabolite levels, collected over time, were used in various compartments, and in the presence and absence of microbial drug metabolism, to build the predictor module 130 which implements a physiologically based pharmacokinetic model to predict the levels and source of systemic drug and metabolite exposure over time, and quantify the contribution of host and microbiota to systemic drug and metabolite exposure. First, to parameterize processes independent from microbial BRV metabolism (grey compartments in FIG. 19A), a global optimization procedure was used to fit measured BRV and BVU kinetics in serum and intestinal compartments of GN^MUT mice. […]
Measured BRV and BVU kinetics in serum and intestinal compartments of GN^MUT mice were used to parameterize processes independent from bacterial BRV conversion (grey compartments as illustrated in FIG. 19A) using the global optimization procedure to best fit the measured data. […]
To parameterize processes dependent on microbial BRV metabolism (green compartments in FIG. 19A), including bacterial BRV to BVU conversion (kc^B) and BVU absorption rates from cecum and colon (KaLI1^M and kaLI2^M), measured BRV and BVU kinetics in cecum and colon (but not serum) of GN^WT mice, as illustrated in FIGS. 19C and 20A, are used. […]

[2] = type: in vivo, C57BL/6J mice
Procedure: Germfree mice were colonized with the wildtype and mutant strains. BRV was administered.
Individually caged GF C57BL/6J mice are colonized by oral gavage with 200 μL of an overnight GMM culture of either B. thetaiotaomicron wild type or bt4554 strains to generate GN^WT or GN^MUT mice, respectively. After 4 days, bacterial loads are determined by CFU plating on BHI blood agar prior to drug treatment.
(§1) Each drug treatment is performed using 20 treated and 5 to 6 untreated animals. Both genders are equally represented in each group and evenly distributed across the different time points for sample collection. Animals (n=5 per time point and group) are given 100 mg/kg body weight of BRV or SRV as suspensions in PBS (200 μL PBS for controls) by oral gavage. One blood sample is collected from each animal at an early time point (0.5, 1, 1.5, or 2 hours after drug administration) by submandibular bleeding. At 3, 5, 7, and 9 h, mice are sacrificed and tissue samples are collected into sample tubes and snap-frozen. Fecal samples are collected before euthanization and re-suspended in PBS (1 mL) through vigorous shaking. 20 μL are then plated on BHI blood plates and incubated aerobically and anaerobically at 37° C. to check GF, GN^WT, and GN^MUT animals for contamination. Monocolonized mice are also checked for contamination by PCR using primers 7 and 8.

[3] = Oral BRV in conventional (CV) and germfree (GF) mice, drug and metabolite levels; type: in vivo, C57BL/6 mice
Procedure: Oral BRV was administered to conventional (CV) and germfree (GF) C57BL/6 mice, and BRV and BVU concentrations were measured over time along the length of the gastrointestinal tract as shown in FIG. 4C. Serum kinetics of BRV and BVU in conventional (CV) and germ-free (GF) mice were compared following oral BRV administration.
All experiments using mice are performed using protocols approved by the Yale University Institutional Animal Care and Use Committee. Germfree (GF) 8 to 12 week old C57BL/6J mice are maintained in flexible plastic gnotobiotic isolators with a 12-hour light/dark cycle and GF status monitored by PCR and culture-based methods. Conventional C57BL/6J mice (Jackson Laboratories) are purchased at the age of 6-7 weeks and kept in the lab for 2-3 weeks before experiments. All mice are provided a standard, autoclaved mouse chow (5013 LabDiet, Purina) ad libitum.
as §1
200 μL of 0.1 mm zirconia/silica beads (BioSpec Products) and 500 μL of organic solvent (acetonitrile:methanol, 1:1) supplemented with internal standard are added to 50-350 mg of pre-weighed solid material. Material is homogenized by mechanical disruption with a bead beater (BioSpec Products) set for 2 minutes on high setting at room temperature. After incubation for at least 1 h at −20° C., samples are centrifuged (3220 rcf, −9° C.) for 15 min. 10 μL of supernatant are diluted with 10 μL H2O for analysis by LC-MS.
Samples for LS-MS analysis are prepared as described above. Chromatographic separation is performed on a C18 Kinetex Evo column (Phenomenex, 100 mm×2.1 mm, […]) using mobile phase A: H2O, 0.1% formic acid and B: methanol, 0.1% formic acid at 45° C. 5 μL of sample are injected at 100% A and 0.4 mL/min flow followed by a linear gradient to 95% B over 5.5 min and 0.4 mL/min flow leading to thymine, BVU, SRV, and BRV elution at 0.95, 2.0, 2.15, and 2.4 min, respectively. The internal standards caffeine and sulfamethoxazole elute at 1.9 and 2.1 min, respectively. The qTOF is operated in positive scanning mode (50-1000 m/z) and the following source parameters: VCap is 3500 V; nozzle voltage is 2000 V; gas temp is 225 C; drying gas 13 L/min; nebulizer is 20 psig; sheath gas temp is 225 C; and sheath gas flow is 12 L/min. Online mass calibration is performed using a second ionization source and a constant flow (5 μL/min) of reference solution (121.0509 and 922.0098 m/z). Compounds are identified based on the retention time of chemical standards and their accurate mass (tolerance 20 ppm).

## O=c1[nH]cc(/C=C/Br)c(=O)[nH]1 [BVU, bromovinyluracil]
[1]
  microbial share of total BVU exposure in serum (area under the curve): 77%
[2]; GN^WT compared to GN^MUT mice
  serum BVU levels: significantly higher
[2]; GN^WT mice
  absorption of BVU from cecum and colon: almost entirely absorbed
[2]; GN^WT mice after BRV administration
  BVU levels in the liver: increased BVU levels
[3]; CV compared to GF mice, oral BRV
  BVU concentrations in the liver: increased
[3]; CV mice compared to GF controls, oral BRV
  BVU intestinal concentrations: increased intestinal concentrations
[3]; CV versus GF mice, later timepoints after oral BRV
  concentrations of BVU in serum: significantly higher
